Laboratory results: US4648996A, “Phenyl substituted-2,4,6,8-nonatetraenoic acid” (Hoffmann-La Roche Inc., priority 1985, dated 1987)

What was measured:
in vivo = conditions: mouse
Text: The compounds of formulae I and II and salts thereof can be utilized to treat patients suffering from rheumatoid arthritis and related disorders.

[1] = test system: type II collagen arthritis in rats; assay: Established type II collagen arthritis; type: in vivo, Male and female Alderley Park Strain 1 rats; conditions: for Paw Vol / wt / GAG (urine glycosaminoglycans): 100 mg.kg^-1 p.o.
Method: Male and female Alderley Park Strain 1 rats.
Type 2 collagen (prepared from bovine nasal septum cartilage), Freunds incomplete adjuvant (Difco).
Rats were sensitized to type 2 collagen by injecting them intradermally with 1 ml. of a water in oil emulsion consisting of equal parts of a 1 mg.ml^-1 solution of type 2 collagen in 0.45M NaCl, 0.02M Tris, pH 7.4 and Freunds incomplete adjuvant. Rats developing arthritis were allocated on day 15 post sensitization to a control arachis oil treated group (6 male, 4 female) or to the Compound A treated group (6 male, 5 female). Hind paw volume measurements were taken to ensure even distribution of rats between groups. An overnight collection of urine was made on days 15/16 and dosing commenced on day 16. These urine samples were analyzed for glycosaminoglycans (GAG). Compound A was dosed at 100 mg.kg^-1 p.o. On days 19/20 a second overnight collection of urine was made. These urine samples were analyzed for glycosaminoglycans (GAG). On day 20 a second hind paw measurement was taken. Rats were then anaesthetised with sodium pentobarbitone, bled, killed and X-rays taken of hind and forepaws. Rats were dosed on days 16-19 inclusive (4 doses).

[2] = test system: carrageenan pleurisy in rats; assay: Non-immune inflammation, 4 hr carrageenan pleurisy; type: in vivo, Female Alderley Park Strain 1 rats; conditions: 10 days
Method: Female Alderley Park Strain 1 rats weighing 170-205 g. at the start of the experiment were used.
Lambda-carrageenan. Prepared as a solution in saline and sterilized by autoclaving.
Compound A was administered orally to groups of 8 rats once daily for 10 days at doses of 10, 30 and 100 mg.kg^-1. Control animals received the vehicle. One hour after the last dose the animals were anesthetised with methohexitone (Brietal, 50 mg.kg^-1) and 0.2 ml of 1% lambda carrageenan was injected into the pleural cavity. Four hours later the animals were killed with an overdose of pentobarbitone (Sagatal), the pleural exudate was collected and the pleural cavity was washed out with 2 ml of phosphate-buffered saline (PBS-A, Oxoid). The exudate volume was recorded and cell counts were determined using an automatic cell counter (Coulter). Differential cell counts were performed on exudate smears stained with Giemsa stain in order to determine separately the numbers of polymorphonuclear leucocytes (PMN) and mononuclear cells (MN).
Immediately after recovery of the pleural exudates the tibiae of the animals were excised and their breaking strains were determined.
The body weights of the animals were recorded daily. Statistical analyses were performed using Student's two-tailed t test.

Structure (SMILES): CCCCCCCCCOc1ccccc1/C=C/C(C)=C/C=C/C(C)=C/C(=O)O [Compound A, All(E)-9-[2(nonyloxy)phenyl]-3,7-dimethyl-2,4,6,8-nonatetraenoic acid]
- LD50 (in vivo; ip): > 1000 mg/kg
- LD50 (in vivo; po): > 1000 mg/kg
- Paw Vol ([1]; day 16 (start of dosing)): 2.44 ± 0.08
- wt ([1]; day 16 (start of dosing)): 247 ± 14 g
- GAG (urine glycosaminoglycans) ([1]; day 16 (urine days 15/16)): 1586 ± 307 µg
- GAG (urine glycosaminoglycans) ([1]; day 20 (urine days 19/20)): 634 ± 72 µg
- Paw Vol ([1]; day 20, after 4 doses): 2.66 ± 0.06
- wt ([1]; day 20, after 4 doses): 229 ± 10 g
- weight during treatment (in words) ([1]; male and female rats, 100 mg.kg^-1): lost weight
- Exudate Volume ([2]; 10 mg per kg per day p.o.): 0.94 mL
- Exudate Volume % change ([2]; 10 mg per kg per day p.o.): -32.8%
- Tibial Breaking Strain (Right + Left) % change ([2]; 10 mg per kg per day p.o.): -3.4%
- Tibial Breaking Strain (Right + Left) Mean ([2]; 10 mg per kg per day p.o.): 6.5 kg
- Total Cell Count ([2]; 10 mg per kg per day p.o.): 120.8 ×10^6
- Total Cell Count % change ([2]; 10 mg per kg per day p.o.): -6.5%
- Total MN ([2]; 10 mg per kg per day p.o.): 8.4 ×10^6
- Total MN % change ([2]; 10 mg per kg per day p.o.): -17.4%
- Total PMN ([2]; 10 mg per kg per day p.o.): 112.4 ×10^6
- Total PMN % change ([2]; 10 mg per kg per day p.o.): -5.6%
- Exudate Volume ([2]; 30 mg per kg per day p.o.): 0.88 mL
- Exudate Volume % change ([2]; 30 mg per kg per day p.o.): -36.9%
- Tibial Breaking Strain (Right + Left) % change ([2]; 30 mg per kg per day p.o.): +1.5%
- Tibial Breaking Strain (Right + Left) Mean ([2]; 30 mg per kg per day p.o.): 6.8 kg
- Total Cell Count ([2]; 30 mg per kg per day p.o.): 112.1 ×10^6
- Total Cell Count % change ([2]; 30 mg per kg per day p.o.): -13.3%
- Total MN ([2]; 30 mg per kg per day p.o.): 7.9 ×10^6
- Total MN % change ([2]; 30 mg per kg per day p.o.): -23.1%
- Total PMN ([2]; 30 mg per kg per day p.o.): 104.2 ×10^6
- Total PMN % change ([2]; 30 mg per kg per day p.o.): -12.4%
- Exudate Volume ([2]; 100 mg per kg per day p.o.): 0.80 mL
- Exudate Volume % change ([2]; 100 mg per kg per day p.o.): -42.9%
- Tibial Breaking Strain (Right + Left) % change ([2]; 100 mg per kg per day p.o.): -0.3%
- Tibial Breaking Strain (Right + Left) Mean ([2]; 100 mg per kg per day p.o.): 6.7 kg
- Total Cell Count ([2]; 100 mg per kg per day p.o.): 109.1 ×10^6
- Total Cell Count % change ([2]; 100 mg per kg per day p.o.): -15.7%
- Total MN ([2]; 100 mg per kg per day p.o.): 7.5 ×10^6
- Total MN % change ([2]; 100 mg per kg per day p.o.): -26.7%
- Total PMN ([2]; 100 mg per kg per day p.o.): 101.6 ×10^6
- Total PMN % change ([2]; 100 mg per kg per day p.o.): -14.7%
